Read-outs that look alike come from different tables or passages of the source.
Legend:
[1] = biological target: T1, human androgen receptor (Homo sapiens, UniProt P10275); assay: Investigation of agonist effects: androgen receptor reporter gene (MMTV-luciferase) assay in 11A11B2 cells; assay type: cell-based; conditions: compound concentration showing a transcription activity of 5% (0.1 nmol/L DHT = 100%, assay medium alone = 0%), 48 hours
T1 construct: expressed in transfected cells
T1 sequence (P10275 1-920): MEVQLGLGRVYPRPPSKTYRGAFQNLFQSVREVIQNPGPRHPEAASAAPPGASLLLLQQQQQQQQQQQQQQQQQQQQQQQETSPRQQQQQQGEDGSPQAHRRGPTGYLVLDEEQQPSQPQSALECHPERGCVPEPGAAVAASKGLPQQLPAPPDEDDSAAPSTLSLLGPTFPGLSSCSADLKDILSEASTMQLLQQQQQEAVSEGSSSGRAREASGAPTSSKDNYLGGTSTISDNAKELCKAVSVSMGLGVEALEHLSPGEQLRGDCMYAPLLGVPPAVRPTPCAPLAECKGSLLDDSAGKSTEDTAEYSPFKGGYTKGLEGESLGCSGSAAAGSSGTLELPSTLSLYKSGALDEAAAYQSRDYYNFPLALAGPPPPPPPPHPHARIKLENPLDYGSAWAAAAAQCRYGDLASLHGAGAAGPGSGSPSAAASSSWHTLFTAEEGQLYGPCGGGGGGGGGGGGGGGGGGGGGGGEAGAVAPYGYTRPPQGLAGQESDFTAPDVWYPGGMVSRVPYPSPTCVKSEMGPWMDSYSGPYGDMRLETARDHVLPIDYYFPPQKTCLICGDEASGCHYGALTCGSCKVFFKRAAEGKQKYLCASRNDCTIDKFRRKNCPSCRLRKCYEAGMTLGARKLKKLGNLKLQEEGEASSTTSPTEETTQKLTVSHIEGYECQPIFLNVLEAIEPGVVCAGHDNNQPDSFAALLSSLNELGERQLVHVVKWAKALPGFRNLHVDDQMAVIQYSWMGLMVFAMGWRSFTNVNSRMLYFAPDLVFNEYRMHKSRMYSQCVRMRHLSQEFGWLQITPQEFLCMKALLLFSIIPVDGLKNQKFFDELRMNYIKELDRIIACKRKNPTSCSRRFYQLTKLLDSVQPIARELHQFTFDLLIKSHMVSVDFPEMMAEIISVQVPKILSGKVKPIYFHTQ
Procedure: (§1) HeLa cells (purchased from Dai-Nippon Seiyaku K.K.) were cultured overnight in Dulbecco's Modified Eagle Medium containing no phenol red, but containing 3% charcoal-treated fetal bovine serum (hereafter referred to as DCC-FBS) (this medium is hereafter referred to as phenol-red-free DMEM). An MMTV-Luc-Hyg vector (reporter plasmid with mouse mammary tumor virus long terminal repeat as an androgen response element: vector obtained by substituting the chloramphenicol acetyl transferease gene of a GM-CAT vector (A.T.C.C No. 67282) purchased from the A.T.C.C. with the firefly luciferase gene, and inserting a hygromycin resistance gene as a drug resistance gene), and pSG5-hAR-neo (human androgen receptor expression vector: a vector having an androgen receptor gene under the control of the SV40 promoter, and having a neomycin resistance gene inserted as a drug resistance gene) were transfected into the HeLa cells using an FuGENE™ 6 Transfection Reagent (obtained from Roche).
(§2) A clone in which transcription activity was elevated in a dose-dependent manner by dihydrotestosterone was obtained by culturing the transfected cells in DMEM containing 500 μg/mL neomycin, 300 μg/mL hygromycin and 10% fetal bovine serum (hereafter referred to as FBS). The clone cells thus obtained (11A11B2 cells) were maintained and propagated using DMEM containing 400 μg/mL neomycin, 200 μg/mL hygromycin and 10% FBS, and were propagated using phenol-red-free DMEM containing 10% DCC-FBS three to four days prior to the performance of an androgen receptor reporter gene assay.
The 11A11B2 cells were inoculated in a white clear-bottomed 96-well microplate (COSTAR) so that the cell concentration was 1.0×10^4/well, using phenol-red-free DMEM containing 3% DCC-FBS (hereafter referred to as the assay medium), and were cultured overnight. The assay medium containing the compounds of the examples and compounds of the comparative examples were added so that the final concentrations of the compounds of the examples and compounds of the comparative examples were 1, 10, 100, 1,000 and 10,000 nmol/L (however, in the case of the compounds of Examples 1 and 2, the compounds were added so that the final concentrations were […]), and the cells were cultured for 48 hours, after which the transcription activity value was measured. The transcription activity was measured using a Bright-Glo™ Luciferase Assay System (Promega).
(§3) The transcription activity rates of the compounds of the examples were calculated from the transcription activity measured by the abovementioned method, with the transcription activity value obtained at 0.1 nmol/L DHT taken as 100%, and the transcription activity value in the case of the assay medium alone taken as 0%. The compound concentration showing a transcription activity of 5% (EC5 value) was calculated from a linear equation for two points on either side of 5%.

[2] = prostate cancer patients treated with flutamide; cited from earlier work
[3] = biological target: androgen receptor (Homo sapiens, UniProt P10275); conditions: at a concentration of 10 μmol/L; cited from earlier work
[4] = biological target: T1, human androgen receptor; assay: Investigation of antagonist effects: androgen receptor reporter gene (MMTV-luciferase) assay in 11A11B2 cells with 0.1 nmol/L DHT; assay type: cell-based
Procedure: as §1, §2
After culturing for 48 hours, the transcription activity values were measured. The transcription activity was measured using a Bright-Glo™ Luciferase Assay System (Promega).
as §3, with “0%.” for “0%. The compound concentration showing a transcription activity of 5% (EC5 value) was calculated from a linear equation for two points on either side of 5%.”
Accordingly, the value obtained by subtracting the transcription activity rate of Test Example 1 (Investigation of Agonist Activity) from the transcription activity rate of Test Example 2 (Investigation of Antagonist Activity) was used to calculate the compound concentration at which a transcription activity of 50% was shown (IC50 value). The IC50 value was calculated from a linear equation for two points on either side of 50%.

[5] = system: castrated rats; conditions: continuously administered for two weeks; cited from earlier work
[6] = 11A11B2 cells, 0.1 nmol/L DHT, 48 hours, agonist transcription activity rate of Test Example 1 subtracted, read-out: IC50

Row | SMILES | EC5 [1] | IC50 [4, 6] | other results
1 | CN1C(=S)N(c2ccc(C#N)c(C(F)(F)F)c2)C(=O)C1(C)C [Comparative Example 1, 4-(5-oxo-2-thioxo-3,4,4-trimethyl-1-imidazolidinyl)-2-trifluoromethylbenzonitrile, reference compound] | 8e-05 µM |  | 
2 | CC(=O)NCCN1C(=S)N(c2ccc(C#N)c(C(F)(F)F)c2)C(=O)C1(C)C [Comparative Example 2, 4-[3′-(2″-N-acetylaminoethyl)-4′,4′-dimethyl-5′-oxo-2′-thioxo-1′-imidazolidinyl]-2-trifluoromethylbenzonitrile, reference compound] | 3 µM |  | 
3 | CC(C)(O)C(=O)Nc1ccc([N+](=O)[O-])c(C(F)(F)F)c1 [Comparative Example 4, hydroxyflutamide] | 0.01 µM |  | hydroxyflutamide concentration in the blood [2]: several; androgen receptor transcription activity [3]: increase
4 | CC1(C)C(=O)N(c2ccc(C#N)c(Cl)c2)C(=S)N1CCCS(N)(=O)=O [Example 1, 3-[3-(3-chloro-4-cyanophenyl)-5,5-dimethyl-4-oxo-2-thioxoimidazolidin-1-yl]propane-1-sulfonic acid amide] | >10 µM |  | IC50 [4]: 200 nM
5 | COc1cc(N2C(=O)C(C)(C)N(CCCS(N)(=O)=O)C2=S)ccc1C#N [Example 2, 3-[3-(4-cyano-3-methoxyphenyl)-5,5-dimethyl-4-oxo-2-thioxoimidazolidin-1-yl]propane-1-sulfonic acid amide] | >10 µM | 300 nM | 
6 | CC1(C)C(=O)N(c2ccc(C#N)c(Cl)c2)C(=S)N1CCCCS(N)(=O)=O [Example 26, 4-[3-(3-chloro-4-cyanophenyl)-5,5-dimethyl-4-oxo-2-thioxoimidazolidin-1-yl]butane-1-sulfonic acid amide] | >10 µM | 900 nM | 
7 | CC1(C)C(=O)N(c2ccc(C#N)c(Cl)c2)C(=S)N1CCCCCS(N)(=O)=O [Example 27, 5-[3-(3-chloro-4-cyanophenyl)-5,5-dimethyl-4-oxo-2-thioxoimidazolidin-1-yl]pentane-1-sulfonic acid amide] | >10 µM | 400 nM | 
8 | CC1(C)C(=O)N(c2ccc(C#N)c(Cl)c2)C(=S)N1CCS(N)(=O)=O [Example 28, 2-[3-(3-chloro-4-cyanophenyl)-5,5-dimethyl-4-oxo-2-thioxoimidazolidin-1-yl]ethane-1-sulfonic acid amide] | >10 µM | 400 nM | 
9 | CC(=O)O[C@]1(C(C)=O)CC[C@H]2[C@@H]3C=C(Cl)C4=CC(=O)CC[C@]4(C)[C@H]3CC[C@@]21C [chlormadinone acetate] |  |  | weight of the prostate gland [5]: increase
10 | CC(=O)O[C@]1(C(C)=O)CC[C@H]2[C@@H]3C=C(Cl)C4=CC(=O)[C@@H]5C[C@@H]5[C@]4(C)[C@H]3CC[C@@]21C [cyproterone acetate] |  |  | weight of the prostate gland [5]: increase
